Reference: patent US6391902B1, “Substituted benzofuranoindoles and indenoindoles as novel potassium channel openers” (American Home Products Corporation, priority 1998, dated 2002)

Assays:
Bladder Tissue = assay: Relaxation of KCl-stimulated isolated rat bladder strips (contractile activity); set-up: species or system Sprague-Dawley rats; details: for IC50: Rattus norvegicus, 0.5 h; for inhibition at 30 µM: rat bladder strips, additional 15 mM KCl, 30 μM test compound, read-out: Bladder Tissue I = Percent inhibition at 30 μM
Description: Sprague-Dawley rats (150-200 g) are rendered unconscious by CO2 asphyxiation and then euthanized by cervical dislocation. The bladder is removed into warm (37° C.) physiological salt solution (PSS) of the following composition (mM): NaCl, 118.4; KCl, 4.7; CaCl2, 2.5; […]; NaHCO3, 24.9; KH2PO4, 1.2; glucose, 11.1; EDTA, 0.023; gassed with 95% O2; […]; pH 7.4. The bladder is opened and then cut into strips 1-2 mm in width and 7-10 mm in length. The strips are subsequently suspended in a 10 mL tissue bath under an initial resting tension of 1.5 g. The strips are held in place by two surgical clips one of which is attached to a fixed hook while the other is attached to an isometric force transducer. […] The carbachol is then washed out and the tissue allowed to relax to its resting level of activity. Following a further 30 min period of recovery an additional 15 mM KCl re introduced into the tissue bath. […] Following stabilization of this enhanced level of contractile activity, incremental increases in the concentration of test compound or vehicle are introduced into the tissue bath. Contractile activity is measured for each compound or vehicle concentration during the last minute of a 30 minute challenge.

Aorta Tissue = assay: Relaxation of KCl-contracted isolated rat thoracic aortic rings (contractile force); set-up: species or system Sprague-Dawley rats; details: for IC50: Rattus norvegicus; for Ratio Aorta IC50 / Bladder IC50: aorta IC50 divided by bladder IC50, tissue selectivity
Description: The smooth muscle (aorta) relaxing activity of the compounds of this ivention was established in accordance with standard pharmaceutically accepted test procedures with representative compounds as follows.
Male Sprague-Dawley rats (150-200 g) are rendered unconscious by CO2 asphyxiation and then euthanized by cervical dislocation. The thoracic aorta is removed into warm (37° C.) physiological sial solution (PSS) of the following composition (mM): NaCl, 118.4; KCl, 4.7; CaCl2, 2.5; MgSO4.7H2O, 1.2; NaHCO3, 24.9; KH2PO4, 1.2; glucose, 11.1; EDTA, 0.023; gassed with 95% O2/5% CO2; pH 7.4. The aorta is cleaned of fat and loose adventitia and cut into rings 3-4 mm in width. The rings are subsequently suspended between two stainless steel wire tissue holders in a 10 mL tissue bath. One wire tissue holder is attached to a fixed hook while the other is attached to an isometric force transducer. Resting tension is set at 1 g. The tissues are to recover for a period of 60 min prior to beginning the experiment. Tissues are challenged with PSS containing 25 mM KCl to elicit a contracture. The tissues are then washed repeatedly with fresh PSS over a period of 30 min and allowed to recover to baseline tension. PSS containing 30-35 mM KCl is then introduced into the tissue bath to evoke a contracture that is allowed to stabilize for not less than 45 min. (Other stimuli such as norepinephrine, PGF2a, histamine, angiotensin II, endothelin or PSS containing 80 mM KCl may also be used to evoke a contracture as necessary). Increasing concentrations of test compound or vehicle are then added to the tissue bath in a cumulative fashion.
Isometric force development by the aortic rings is measured using a force transducer and recorded on a polygraph. The percentage inhibition of contractile force evoked by each concentration of a given test compound is used to generate a concentration-response curve. […] [Log concentration versus response curves are approximately linear between 20% and 80% of the maximum response. As such, the IC50 concentration of the drug is determined by linear regression analysis (where x=log concentration and y=% inhibition) of the data points in the 20% to 80% region of the curve.] […] Data collected from 2 animals are averaged for primary screens.

whole rat bladder = assay: Relaxation of whole rat bladder ex-vivo (partial outlet obstruction, developed bladder pressure); set-up: species or system Spraque-Dawley rats; details: isolated whole bladder of rats 6 weeks after partial outlet obstruction, 30 minute challenge
Description: Several compound in this invention were tested for their ability to relax a whole rat bladder ex-vivo. The protocol for this assay is as follows.
Female Spraque-Dawley rats weighing between 200-300 g were anesthetized with Nembutol® (50 mg/kg, i.p.). After achieving adequate anesthesia, the bladder and urethra were exposed through a mid-line incision. A 4-0 silk ligature was tied around the proximal end of the urethra in the presence of a 1 mm diameter stainless steel rod. The rod was then removed resulting in a partial outlet obstruction. The wound was closed with surgical staples and the animals received 15,000 units of Bicillin® antibiotic. After a 6 week period the animals were asphyxiated with CO2 gas. Bladders for contractile analysis were placed in a physiological salt solution (PSS) at 37° C. of the following composition (in mM): NaCl (118.4), KCl (4.7), CaCl2 (2.5), MgSO4 (1.2), KH2PO4 (1.2), NaHCO3 (24.9) and D-glucose (11.1) gassed with […] to achieve a pH of 7.4.
The isolated bladders were secured through the urethral opening with a silk ligature to a length of polyethylene tubing (PE-200). […]
Following stabilization, incremental increases in the concentration of test compound or vehicle are introduced into the tissue bath. Contractile activity is measured for each compound or vehicle concentration during the last minute of a 30 minute challenge.

SMILES | IC50 (Bladder Tissue) | IC50 (Aorta Tissue) | Ratio Aorta IC50 / Bladder IC50 (Aorta Tissue) | melting point | IC50 (whole rat bladder) | inhibition at 30 µM (Bladder Tissue)
O.O.O=C(O)c1cccc2c1[nH]c1c3cc([N+](=O)[O-])ccc3oc21 [Example 4, 8-Nitro-10H-benzo[4,5]furo[3,2-b]indole-1-carboxylic acid dihydrate] | 6.3 ± 2.6 µM | 125 ± 13.8 µM | 19.8 |  |  | 
CC(NC(=O)c1cccc2c1[nH]c1c3cc(Br)ccc3oc21)C(C)(C)C (stereo not drawn) [Example 12, 8-Bromo-10H-benzo[4,5]furo[3,2-b]indole-1-carboxylic acid (1,2,2-trimethyl-propyl)-amide] | 13.9 ± 0.95 µM | 25 ± 3.9 µM | 1.8 | 173 to 175 °C |  | 
CN(O)C(=O)c1cccc2c1[nH]c1c3cc(Br)ccc3oc21 [Example 8, 8-Bromo-10H-benzo[4,5]furo[3,2-b]indole-1-carboxylic acid hydroxy-methyl amide] | 19.8 ± 4.02 µM | 8.1 ± 3.6 µM | 0.41 | 174 to 175 °C |  | 
Brc1ccc2oc3c4cccc(-c5nnn[nH]5)c4[nH]c3c2c1 [Example 11, 8-Bromo-1-(1H-tetrazol-5-yl)-10H-benzo[4,5]furo[3,2-b]indole] |  |  |  | 275 to 277 °C (dec.) |  | 30.9%
CCOC(=O)c1cccc2c1Cc1c-2[nH]c2ccc(Cl)cc12 [Example 22, 8-Chloro-5,10-dihydro-indeno[1,2-b]indole-1-carboxylic acid ethyl ester] |  |  |  | 202 to 204 °C |  | 8%

The next lines start with results.

IC50 (Bladder Tissue) | IC50 (Aorta Tissue) | Ratio Aorta IC50 / Bladder IC50 (Aorta Tissue) | melting point | IC50 (whole rat bladder) | SMILES | inhibition at 30 µM (Bladder Tissue)
4.4 ± 0.95 µM | 110 ± 12.4 µM | 25 | 328 to 330 °C (dec.) |  | O=C(O)c1cccc2c1Cc1c-2[nH]c2ccc(Br)cc12 [Example 25, 8-Bromo-5,10-dihydro-indeno[1,2-b]indole-1-carboxylic acid] | 
6.1 ± 3 µM | 128 ± 16.9 µM | 21 | 297 °C (dec.) |  | O=C(O)c1cccc2c1[nH]c1c3cc(I)ccc3oc21 [Example 2, 8-Iodo-10H-benzo[4,5]furo[3,2-b]indole-1-carboxylic acid] | 
12.5 ± 5 µM | 46.6 ± 18.7 µM | 3.74 | > 300 °C |  | O=C(O)c1cccc2c1Cc1c-2[nH]c2ccc(F)cc12 [Example 19, 8-Fluoro-5,10-dihydro-indeno[1,2-b]indole-1-carboxylic acid] | 
 | 210 ± 45 µM |  | 245 to 247 °C (dec.) |  | O=C(O)c1cccc2c3c([nH]c12)-c1cc(Br)ccc1C3 [Example 26, 3-Bromo-5,10-dihydro-indeno[1,2-b]indole-6-carboxylic acid] | 
5.8 ± 1.5 µM | 268 ± 82.3 µM | 46.2 | 303 °C (dec.) |  | O=C(O)c1cccc2c1[nH]c1c3cc(Cl)ccc3oc21 [Example 3, 8-Chloro-10H-benzo[4,5]furo[3,2-b]indole-1-carboxylic acid] | 
15.1 ± 4.7 µM | 119 ± 21.8 µM | 7.9 | 312 to 313 °C |  | O=C(O)c1cccc2c1[nH]c1c3cc(Br)ccc3oc21 [Example 1, 8-Bromo-10H-benzo[4,5]furo[3,2-b]indole-1-carboxylic acid] | 
5.2 ± 1.8 µM | 17.2 ± 2.3 µM | 3.3 | 310 °C (dec.) | 5 µM | CC1(C)c2ccc([N+](=O)[O-])cc2-c2[nH]c3c(C(=O)O)cccc3c21 [Example 24, 10,10-Dimethyl-3-nitro-5,10-dihydro-indeno[1,2-b]indole-6-carboxylic acid] | 
